Data from US20150064221A1, “COMPOUNDS HAVING IMMUNOMUDULATOR ACTIVITY” (priority 2012, published 2015).
Read-outs that look alike come from different tables or passages of the source.

How the values were obtained:
[1] = system: 30 primary molecular targets; test: Radioligand binding assay (MDS Pharma HitProfiling Screen); conditions: 30 targets, concentrations up to 10 μM; significant = ≧50% inhibition or stimulation
Protocol: VGX-1027 was negative in a radioligand binding assay (MDS Pharma HitProfiling Screen) that tested 30 primary molecular targets at concentrations up to 10 μM. No significant response (≧50% inhibition or stimulation for Biochemical assays) were noted.

[2] = system: RIN-m5F and MIN6 insulinoma cell lines; test: Cytokine-stimulated insulinoma cell lines; assay type: cell-based
Protocol: Both results were determined 48 hours post stimulation, and VGX-1027 was added at the time of stimulation.
Insulinoma cell lines, which die following stimulation with either IL-1β/INF-γ or TNF-α/INF-γ, were used in this study. Specifically, cell lines RIN-m5F and MIN6 were treated with either IL-1β/INF-γ alone or IL-1β/INF-γ/VGX-1027, and TNF-α production, which is a consequence of stimulation with these factors, was measured.

[3] = system: endotoxin-induced uveitis; test: Endotoxin-induced uveitis (EIU); assay type: in vivo, Lewis rats
Protocol: Rats were treated with VGX-1027 at 30 minutes (A) and 6 and 12 hours (B) after LPS injection […]). […] were evaluated 16 hours post LPS injection. Dexamethasone (1 mg/kg) was administered as a positive control. *p<0.0001 vs. vehicle.
Chronic intraocular inflammation denotes a heterogeneous group of diseases that is a leading cause of acquired blindness in adults. Uveitis refers to inflammation of the uvea, which is the vascular tunic or middle coat of the eye, and is responsible for approximately 3% of blindness in the United States. Unlike other autoimmune conditions with known etiologies, uveitis manifests in a number of inflammatory syndromes including Crohn's disease, Behcet's disease, sarcoidosis, and others (Yeh et al., Semin. Immunopathol., (30) 145-164 (2008)). To study the possible utility of VGX-1027 in treating ocular inflammatory conditions, we injected LPS into footpads of Lewis Rats to induce uveitis. After 16 hours post LPS injection, the rats were sacrificed, and their eyes and aqueous humor were collected to study serological, immunological, and histological signs of EIU. The development of EIU was graded on the following scale: (0) no inflammatory reaction; (1) discrete dilatation of the iris and conjunctival vessels; (2) moderate dilatation of the iris and conjunctival vessels; (3) intense iridal hyperaemia with flare in anterior chamber; and (4) same clinical signs as grade 3 plus the presence of fibrinous exudate in the pupillary area with intense flare in the anterior chamber.

[4] = Placebo-controlled ascending multiple-dose study in healthy subjects; assay type: in vivo, human; conditions: for Tmax / Cmax / AUC(0-t) / AUC: human, in vivo, oral; for Cmax / AUC(0-t) / AUC: Geo Mean; for AUC(0-t): read-out: AUC (0-24); for AUC: read-out: AUC (AUC to 12 hours)
Protocol: A placebo-controlled, ascending multiple-dose study was also performed to evaluate the safety and pharmacokinetics of VGX-1027 in healthy human subjects. The primary outcome to be measure was the safety as determined by vital signs, physical examinations, ECGs, clinical laboratory evaluations, and adverse event reporting. The secondary outcome measured was the pharmacokinetics on day 1 and at steady state-on day 5. Study was performed upon 4 groups of subjects: group 1: 40 mg of VGX-1027 QD; group 2: 100 mg of VGX-1027 QD; group 3: 200 mg of VGX-1027 QD; group 4: 200 mg of VGX-1027 BID. The pharmacokinetics is provided in Table 7, below, along with data from the single dose study: […]

p38 and 1-kBα = test: LPS-induced signalling pathway phosphorylation; assay type: cell-based
Protocol: (A) Thioglycollate-elicited macrophages (1×10^6/ml) were stimulated with either LPS (5 μg/ml), zymosan (ZYM, 50 μg/ml), MDP (25 μg/ml), or Poly(I:C) (50 μg/ml) in the presence or absence of VGX-1027 (10 μg/ml). TNF-α was measured 48 hours post treatment. (B) Relative phosphorylations of 1-κBα and p38 were measured at the indicated time points following stimulation with LPS (5 μg/ml). The y-axis is presented as fold change in comparison to the values obtained from LPS-treated cultures alone. * p<0.05.
(Jiang et al., J. Biol. Chem., (278) 16713-16719 (2003). In addition, it was observed that VGX-1027 inhibited LPS-induced phosphorylation of p38 and 1-kBα, indicating VGX-1027 inhibits a protein upstream of both the p38 and NF-κB, signaling pathways (FIG. 4b).

CYP450 2D6 = CYP450 2D6 (Homo sapiens, UniProt P10635); test: CYP450 inhibition; assay type: in vitro ADME
Protocol: (§1) The highest plasma concentrations generally occurred in 1-2 hours. […] The highest level of inhibition was ˜35% for 2C19 at a 30 μM concentration. […] Lastly, VGX-1027 is stable in human liver S9 fractions (with phase 1 and 2 cofactors) with t1/2>90 minutes, which indicates a low likelihood of metabolism in the liver.

CYP450 1A2 = CYP450 1A2 (Homo sapiens, UniProt P05177); test: CYP450 inhibition; assay type: in vitro ADME
Protocol: as §1

CYP450 3A4 = CYP450 3A4 (Homo sapiens, UniProt P08684); test: CYP450 inhibition; assay type: in vitro ADME
Protocol: as §1

CYP450 2C19 = CYP450 2C19 (Homo sapiens, UniProt P33261); test: CYP450 inhibition; assay type: in vitro ADME; conditions: 2C19
Protocol: as §1

CYP450 2C9 = CYP450 2C9 (Homo sapiens, UniProt P11712); test: CYP450 inhibition; assay type: in vitro ADME
Protocol: as §1

CYP2C19 = CYP2C19 (Homo sapiens, UniProt P33261); test: CYP450 inhibition; assay type: in vitro ADME; conditions: human; 2C19 at 30 μM; read-out: highest level of inhibition
Protocol: as §1

[5] = 100 mg, Multiple Dose (Day 1) 100 mg
[6] = 100 mg, Multiple Dose (Day 5) 100 mg
[7] = 200 mg, 200 mg BID, first dose, Day 1
[8] = 200 mg, 200 mg BID, first dose, Day 5
[9] = 200 mg, Multiple Dose (Day 1) 200 mg
[10] = 200 mg, Multiple Dose (Day 5) 200 mg

Sequence of CYP450 3A4 (P08684 whole entry): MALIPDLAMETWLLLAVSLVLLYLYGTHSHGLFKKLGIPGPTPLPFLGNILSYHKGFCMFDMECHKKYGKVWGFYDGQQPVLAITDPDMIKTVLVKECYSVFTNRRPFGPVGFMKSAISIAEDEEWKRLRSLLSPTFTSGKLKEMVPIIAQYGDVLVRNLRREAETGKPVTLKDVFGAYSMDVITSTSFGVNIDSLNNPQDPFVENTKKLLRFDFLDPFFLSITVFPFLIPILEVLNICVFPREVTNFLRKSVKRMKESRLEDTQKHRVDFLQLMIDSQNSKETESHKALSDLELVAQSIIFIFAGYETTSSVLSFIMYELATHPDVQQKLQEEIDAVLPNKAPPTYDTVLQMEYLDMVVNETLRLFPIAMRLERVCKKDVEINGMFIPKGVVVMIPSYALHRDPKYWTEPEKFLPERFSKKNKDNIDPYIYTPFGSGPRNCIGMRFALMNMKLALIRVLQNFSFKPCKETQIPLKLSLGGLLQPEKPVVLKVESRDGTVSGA
Sequence of CYP450 1A2 (P05177 whole entry): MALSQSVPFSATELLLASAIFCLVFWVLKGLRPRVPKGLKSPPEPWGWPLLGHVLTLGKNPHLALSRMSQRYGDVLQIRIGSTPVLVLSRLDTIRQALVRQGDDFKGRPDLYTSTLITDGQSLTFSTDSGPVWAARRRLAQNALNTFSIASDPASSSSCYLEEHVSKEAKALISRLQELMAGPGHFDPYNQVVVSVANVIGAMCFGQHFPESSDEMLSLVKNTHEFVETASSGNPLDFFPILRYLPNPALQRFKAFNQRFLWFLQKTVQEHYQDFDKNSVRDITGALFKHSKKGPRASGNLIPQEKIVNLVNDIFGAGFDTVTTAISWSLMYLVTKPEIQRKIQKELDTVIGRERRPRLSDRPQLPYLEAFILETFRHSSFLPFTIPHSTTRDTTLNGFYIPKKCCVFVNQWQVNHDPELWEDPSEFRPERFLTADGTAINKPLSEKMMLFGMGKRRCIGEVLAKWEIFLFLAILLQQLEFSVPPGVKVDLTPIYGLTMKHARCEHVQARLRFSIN
Sequence of CYP450 2C9 (P11712 whole entry): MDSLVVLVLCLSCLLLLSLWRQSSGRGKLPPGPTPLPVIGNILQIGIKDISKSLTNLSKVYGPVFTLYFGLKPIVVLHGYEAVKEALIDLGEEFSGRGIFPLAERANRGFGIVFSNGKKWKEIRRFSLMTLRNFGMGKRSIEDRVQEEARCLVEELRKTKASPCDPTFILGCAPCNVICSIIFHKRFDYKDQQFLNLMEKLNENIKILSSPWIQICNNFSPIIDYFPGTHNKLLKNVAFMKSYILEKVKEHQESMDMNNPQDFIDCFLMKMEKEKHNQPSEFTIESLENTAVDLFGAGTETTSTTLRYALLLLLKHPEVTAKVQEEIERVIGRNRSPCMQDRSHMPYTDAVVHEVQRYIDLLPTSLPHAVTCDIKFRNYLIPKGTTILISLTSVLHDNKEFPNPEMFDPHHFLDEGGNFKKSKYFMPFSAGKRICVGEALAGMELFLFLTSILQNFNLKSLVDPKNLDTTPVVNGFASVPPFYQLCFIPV
Sequence of CYP450 2D6 (P10635 whole entry): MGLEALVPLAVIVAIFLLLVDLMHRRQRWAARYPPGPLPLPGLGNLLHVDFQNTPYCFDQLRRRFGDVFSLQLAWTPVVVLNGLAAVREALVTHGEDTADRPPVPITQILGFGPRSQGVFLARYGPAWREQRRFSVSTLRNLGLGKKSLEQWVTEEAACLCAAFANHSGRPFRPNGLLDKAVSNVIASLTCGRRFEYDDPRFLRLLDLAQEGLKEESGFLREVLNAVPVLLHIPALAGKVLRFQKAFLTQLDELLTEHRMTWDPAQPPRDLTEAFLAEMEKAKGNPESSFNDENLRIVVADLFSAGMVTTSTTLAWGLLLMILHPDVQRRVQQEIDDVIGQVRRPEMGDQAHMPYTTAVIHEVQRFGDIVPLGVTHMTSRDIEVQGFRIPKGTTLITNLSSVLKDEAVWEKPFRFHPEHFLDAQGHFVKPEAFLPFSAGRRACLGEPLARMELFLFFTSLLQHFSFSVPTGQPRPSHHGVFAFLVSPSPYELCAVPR
Sequence of CYP450 2C19 (P33261 whole entry): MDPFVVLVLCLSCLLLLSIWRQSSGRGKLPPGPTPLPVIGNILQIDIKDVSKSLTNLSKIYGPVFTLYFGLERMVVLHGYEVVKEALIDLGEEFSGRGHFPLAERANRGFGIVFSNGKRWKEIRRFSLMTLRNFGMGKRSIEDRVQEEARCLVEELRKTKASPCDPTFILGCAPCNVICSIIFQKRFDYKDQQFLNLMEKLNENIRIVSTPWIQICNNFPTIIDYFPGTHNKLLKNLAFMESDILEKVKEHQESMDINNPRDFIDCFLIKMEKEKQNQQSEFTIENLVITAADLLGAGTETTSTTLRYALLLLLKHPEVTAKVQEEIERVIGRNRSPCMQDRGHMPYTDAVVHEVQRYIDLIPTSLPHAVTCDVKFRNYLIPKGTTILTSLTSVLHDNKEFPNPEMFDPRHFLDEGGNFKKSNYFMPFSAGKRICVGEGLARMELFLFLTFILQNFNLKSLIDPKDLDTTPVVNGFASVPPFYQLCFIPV
Sequence of CYP2C19 (P33261 whole entry): as above

O=C(O)CC1CC(c2ccccc2)=NO1 (centres unmarked) [VGX-1027, 3-phenyl-4,5-dihydro-5-isoxazoleacetic acid]
radioligand binding result [1]: negative
TNF-α production ([2]; IL-1β/INF-γ stimulation, both cell types, 48 hours): significantly repressed
cell viability ([2]; IL-1β/INF-γ with co-treatment, 48 hours): over 60%
cell viability with exogenous rTNF-α ([2]; IL-1β/INF-γ/TNF-α): prevented the protective effect
inflammatory cytokines in the aqueous humor ([3]; LPS-induced increase): decreased
protein in the aqueous humor ([3]; LPS-induced increase): decreased
clinical inflammation score ([3]; administered 30 minutes after LPS): significantly lower
clinical inflammation grade ([3]; administered 12 hours post LPS): not observed
infiltration of cells into the iris ciliary body ([3]; rat, in vivo): decreased
urine drug levels ([4]; CAT002 urine PK analysis): high drug levels in urine
Tmax [4, 5]: 1 h
Cmax [4, 5]: 7570 ng/mL
AUC(0-t) [4, 5]: 31300 ng·h/mL
Tmax [4, 6]: 1.5 h
Cmax [4, 6]: 6760 ng/mL
AUC(0-t) [4, 6]: 23200 ng·h/mL
Tmax [4, 7]: 1 h
Cmax [4, 7]: 13100 ng/mL
AUC [4, 7]: 58200 ng·h/mL
Tmax [4, 8]: 1.5 h
Cmax [4, 8]: 16800 ng/mL
AUC [4, 8]: 70400 ng·h/mL
Tmax [4, 9]: 1.3 h
Cmax [4, 9]: 15700 ng/mL
AUC(0-t) [4, 9]: 78100 ng·h/mL
Tmax [4, 10]: 2 h
Cmax [4, 10]: 14100 ng/mL
AUC(0-t) [4, 10]: 65700 ng·h/mL
dosing toxicities ([4]; up to 200 mg bid for 5 days): No dosing toxicities were observed
ERK pathway (p38 and 1-kBα): up-regulation
phosphorylation of 1-kBα (p38 and 1-kBα; LPS-induced): inhibited
phosphorylation of p38 (p38 and 1-kBα; LPS-induced): inhibited
CYP450 inhibition (CYP450 2D6): no significant inhibition
CYP450 inhibition (CYP450 1A2): no significant inhibition
CYP450 inhibition (CYP450 3A4): no significant inhibition
CYP450 inhibition (CYP450 2C19): no significant inhibition
CYP450 inhibition (CYP450 2C9): no significant inhibition
inhibition at 30 µM (CYP2C19): ~35%
